# Assay results: ChEMBL document CHEMBL5634137, “2,4-Diacetylphloroglucinol (DAPG) derivatives rapidly eradicate methicillin-resistant staphylococcus aureus without resistance development by disrupting membrane” (Eur J Med Chem, 2023)
# Tested on: Escherichia coli
# Assay: Antibacterial activity against Escherichia coli ATCC 11775 assessed as inhibition of bacterial growth incubated for 24 hrs by broth dilution method
# Type: functional
# Settings: not given
row,SMILES,MIC [µg/mL]
1,CCCCC(=O)c1c(O)cc(O)c(C(=O)CCCC)c1O,64
2,CCCCCCCC(=O)c1c(O)cc(O)c(C(=O)CCCCCCC)c1O,> 64
3,O=C(c1c(O)cc(O)c(C(=O)C2CCCCC2)c1O)C1CCCCC1,> 64
4,CCCCCC(=O)c1c(O)cc(O)c(C(=O)CCCCC)c1O,> 64
5,CC(C)(C)CC(=O)c1c(O)cc(O)c(C(=O)CC(C)(C)C)c1O,> 64
6,CC(C)CCC(=O)c1c(O)cc(O)c(C(=O)CCC(C)C)c1O,> 64
7,CCCCC(=O)c1c(O)cc(O)c(C(=O)CC(C)(C)C)c1O,> 64
8,O=C(c1c(O)cc(O)c(C(=O)C2CCC2)c1O)C1CCC1,64
9,CC(=O)c1c(O)cc(O)c(C(C)=O)c1O,> 64
10,O=C(Cc1ccccc1)c1c(O)cc(O)c(C(=O)Cc2ccccc2)c1O,64

# Tested on: Staphylococcus aureus
# Assay: Antibacterial activity against methicillin-resistant Staphylococcus aureus ATCC 4330 assessed as inhibition of bacterial growth incubated for 24 hrs by broth dilution method
# Type: functional
# Settings: not given
row,SMILES,MIC [µg/mL]
1,CCCCCCCCC(=O)c1c(O)cc(O)c(C(=O)CCCCCCCC)c1O,2
2,CCCCC(=O)c1c(O)cc(O)c(C(=O)CCCC)c1O,2
3,CCCCCCCC(=O)c1c(O)cc(O)c(C(=O)CCCCCCC)c1O,1
4,O=C(c1c(O)cc(O)c(C(=O)C2CCCCC2)c1O)C1CCCCC1,1
5,CCCCCC(=O)c1c(O)cc(O)c(C(=O)CCCCC)c1O,0.5
6,CC(C)(C)CC(=O)c1c(O)cc(O)c(C(=O)CC(C)(C)C)c1O,0.5
7,CC(C)CCC(=O)c1c(O)cc(O)c(C(=O)CCC(C)C)c1O,0.5
8,CCCCC(=O)c1c(O)cc(O)c(C(=O)CC(C)(C)C)c1O,0.5
9,O=C(c1c(O)cc(O)c(C(=O)C2CCC2)c1O)C1CCC1,2
10,CC(=O)c1c(O)cc(O)c(C(C)=O)c1O,8
11,O=C(Cc1ccccc1)c1c(O)cc(O)c(C(=O)Cc2ccccc2)c1O,0.5

# Tested on: Pseudomonas aeruginosa
# Assay: Antibacterial activity against Pseudomonas aeruginosa […] assessed as inhibition of bacterial growth incubated for 24 hrs by broth dilution method
# Type: functional
# Settings: not given
row,SMILES,MIC [µg/mL]
1,CCCCC(=O)c1c(O)cc(O)c(C(=O)CCCC)c1O,> 64
2,CCCCCCCC(=O)c1c(O)cc(O)c(C(=O)CCCCCCC)c1O,> 64
3,O=C(c1c(O)cc(O)c(C(=O)C2CCCCC2)c1O)C1CCCCC1,> 64
4,CCCCCC(=O)c1c(O)cc(O)c(C(=O)CCCCC)c1O,> 64
5,CC(C)(C)CC(=O)c1c(O)cc(O)c(C(=O)CC(C)(C)C)c1O,> 64
6,CC(C)CCC(=O)c1c(O)cc(O)c(C(=O)CCC(C)C)c1O,> 64
7,CCCCC(=O)c1c(O)cc(O)c(C(=O)CC(C)(C)C)c1O,> 64
8,O=C(c1c(O)cc(O)c(C(=O)C2CCC2)c1O)C1CCC1,> 64
9,CC(=O)c1c(O)cc(O)c(C(C)=O)c1O,> 64
10,O=C(Cc1ccccc1)c1c(O)cc(O)c(C(=O)Cc2ccccc2)c1O,> 64

# Tested on: Klebsiella pneumoniae
# Assay: Antibacterial activity against Klebsiella pneumoniae […] assessed as inhibition of bacterial growth incubated for 24 hrs by broth dilution method
# Type: functional
# Settings: not given
row,SMILES,MIC [µg/mL]
1,CCCCC(=O)c1c(O)cc(O)c(C(=O)CCCC)c1O,> 64
2,CCCCCCCC(=O)c1c(O)cc(O)c(C(=O)CCCCCCC)c1O,> 64
3,O=C(c1c(O)cc(O)c(C(=O)C2CCCCC2)c1O)C1CCCCC1,> 64
4,CCCCCC(=O)c1c(O)cc(O)c(C(=O)CCCCC)c1O,> 64
5,CC(C)(C)CC(=O)c1c(O)cc(O)c(C(=O)CC(C)(C)C)c1O,> 64
6,CC(C)CCC(=O)c1c(O)cc(O)c(C(=O)CCC(C)C)c1O,> 64
7,CCCCC(=O)c1c(O)cc(O)c(C(=O)CC(C)(C)C)c1O,> 64
8,O=C(c1c(O)cc(O)c(C(=O)C2CCC2)c1O)C1CCC1,> 64
9,CC(=O)c1c(O)cc(O)c(C(C)=O)c1O,> 64
10,O=C(Cc1ccccc1)c1c(O)cc(O)c(C(=O)Cc2ccccc2)c1O,> 64

# Tested on: Staphylococcus aureus
# Assay: Selectivity index, ratio of MBC for bactericidal against methicillin-resistant Staphylococcus aureus ATCC 3392 to MIC for antibacterial activity against methicillin-resistant Staphylococcus aureus ATCC 3392
# Type: functional
# Settings: not given
row,SMILES,Selectivity Index
1,CCCCCCCC(=O)c1c(O)cc(O)c(C(=O)CCCCCCC)c1O,1
2,O=C(c1c(O)cc(O)c(C(=O)C2CCCCC2)c1O)C1CCCCC1,4
3,CCCCCC(=O)c1c(O)cc(O)c(C(=O)CCCCC)c1O,4
4,CC(C)(C)CC(=O)c1c(O)cc(O)c(C(=O)CC(C)(C)C)c1O,8
5,CC(C)CCC(=O)c1c(O)cc(O)c(C(=O)CCC(C)C)c1O,4
6,O=C(c1c(O)cc(O)c(C(=O)C2CCC2)c1O)C1CCC1,4
7,CC(=O)c1c(O)cc(O)c(C(C)=O)c1O,16
8,O=C(Cc1ccccc1)c1c(O)cc(O)c(C(=O)Cc2ccccc2)c1O,8

# Tested on: Staphylococcus aureus
# Assay: Bactericidal activity against methicillin-resistant Staphylococcus aureus ATCC 3392 assessed as inhibition of bacterial growth incubated for 24 hrs by broth dilution method
# Type: functional
# Settings: not given
row,SMILES,MBC [µg/mL]
1,CCCCC(=O)c1c(O)cc(O)c(C(=O)CCCC)c1O,4
2,CCCCCCCC(=O)c1c(O)cc(O)c(C(=O)CCCCCCC)c1O,2
3,O=C(c1c(O)cc(O)c(C(=O)C2CCCCC2)c1O)C1CCCCC1,2
4,CCCCCC(=O)c1c(O)cc(O)c(C(=O)CCCCC)c1O,2
5,CC(C)(C)CC(=O)c1c(O)cc(O)c(C(=O)CC(C)(C)C)c1O,4
6,CC(C)CCC(=O)c1c(O)cc(O)c(C(=O)CCC(C)C)c1O,2
7,CCCCC(=O)c1c(O)cc(O)c(C(=O)CC(C)(C)C)c1O,4
8,O=C(c1c(O)cc(O)c(C(=O)C2CCC2)c1O)C1CCC1,8
9,CC(=O)c1c(O)cc(O)c(C(C)=O)c1O,64
10,O=C(Cc1ccccc1)c1c(O)cc(O)c(C(=O)Cc2ccccc2)c1O,8

# Tested on: not listed separately
# Assay: Cytotoxicity against mouse RAW264.7 cells assessed as survival rate incubated for 24 hrs by MTT assay
# Type: toxicity, cell-based
# Set-up: concentration or dose not given beside the values
# Settings: read-out: Survival
row,SMILES,viability at 24 h [%]
1,CCCCC(=O)c1c(O)cc(O)c(C(=O)CC(C)(C)C)c1O,76

# Tested on: Staphylococcus aureus
# Assay: Antibacterial activity against methicillin-resistant Staphylococcus aureus ATCC 3392 assessed as inhibition of bacterial growth incubated for 24 hrs by broth dilution method
# Type: functional
# Settings: not given
row,SMILES,MIC [µg/mL]
1,CCCCCCCCC(=O)c1c(O)cc(O)c(C(=O)CCCCCCCC)c1O,4
2,CCCCC(=O)c1c(O)cc(O)c(C(=O)CCCC)c1O,2
3,CCCCCCCC(=O)c1c(O)cc(O)c(C(=O)CCCCCCC)c1O,2
4,O=C(c1c(O)cc(O)c(C(=O)C2CCCCC2)c1O)C1CCCCC1,0.5
5,CCCCCC(=O)c1c(O)cc(O)c(C(=O)CCCCC)c1O,0.5
6,CC(C)(C)CC(=O)c1c(O)cc(O)c(C(=O)CC(C)(C)C)c1O,0.5
7,CC(C)CCC(=O)c1c(O)cc(O)c(C(=O)CCC(C)C)c1O,0.5
8,CCCCC(=O)c1c(O)cc(O)c(C(=O)CC(C)(C)C)c1O,0.5
9,O=C(c1c(O)cc(O)c(C(=O)C2CCC2)c1O)C1CCC1,2
10,CC(=O)c1c(O)cc(O)c(C(C)=O)c1O,4
11,O=C(Cc1ccccc1)c1c(O)cc(O)c(C(=O)Cc2ccccc2)c1O,1

# Tested on: Staphylococcus aureus
# Assay: Antibacterial activity against Methicillin-resistant Staphylococcus aureus USA300 assessed as inhibition of bacterial growth incubated for 24 hrs by broth dilution method
# Type: functional
# Settings: not given
row,SMILES,MIC [µg/mL]
1,CCCCC(=O)c1c(O)cc(O)c(C(=O)CCCC)c1O,0.5
2,CCCCCCCC(=O)c1c(O)cc(O)c(C(=O)CCCCCCC)c1O,2
3,O=C(c1c(O)cc(O)c(C(=O)C2CCCCC2)c1O)C1CCCCC1,0.5
4,CCCCCC(=O)c1c(O)cc(O)c(C(=O)CCCCC)c1O,0.5
5,CC(C)(C)CC(=O)c1c(O)cc(O)c(C(=O)CC(C)(C)C)c1O,0.5
6,CC(C)CCC(=O)c1c(O)cc(O)c(C(=O)CCC(C)C)c1O,0.5
7,CCCCC(=O)c1c(O)cc(O)c(C(=O)CC(C)(C)C)c1O,0.5
8,O=C(c1c(O)cc(O)c(C(=O)C2CCC2)c1O)C1CCC1,1
9,CC(=O)c1c(O)cc(O)c(C(C)=O)c1O,8
10,O=C(Cc1ccccc1)c1c(O)cc(O)c(C(=O)Cc2ccccc2)c1O,1

# Tested on: not listed separately
# Assay: Cytotoxicity against human L02 cells assessed as survival rate incubated for 24 hrs by MTT assay
# Type: toxicity, cell-based
# Set-up: concentration or dose not given beside the values
# Settings: read-out: Survival
row,SMILES,viability at 24 h [%]
1,CCCCC(=O)c1c(O)cc(O)c(C(=O)CC(C)(C)C)c1O,75

# Tested on: Staphylococcus aureus
# Assay: Selectivity index, ratio of MBC for bactericidal against methicillin-resistant Staphylococcus aureus ATCC 4330 to MIC for antibacterial activity against methicillin-resistant Staphylococcus aureus ATCC 4330
# Type: functional
# Settings: not given
row,SMILES,Selectivity Index
1,CCCCCCCC(=O)c1c(O)cc(O)c(C(=O)CCCCCCC)c1O,1
2,O=C(c1c(O)cc(O)c(C(=O)C2CCCCC2)c1O)C1CCCCC1,8
3,CCCCCC(=O)c1c(O)cc(O)c(C(=O)CCCCC)c1O,4
4,CC(C)(C)CC(=O)c1c(O)cc(O)c(C(=O)CC(C)(C)C)c1O,8
5,CC(C)CCC(=O)c1c(O)cc(O)c(C(=O)CCC(C)C)c1O,4
6,CCCCC(=O)c1c(O)cc(O)c(C(=O)CC(C)(C)C)c1O,8
7,O=C(c1c(O)cc(O)c(C(=O)C2CCC2)c1O)C1CCC1,2
8,CC(=O)c1c(O)cc(O)c(C(C)=O)c1O,4

# Tested on: Staphylococcus aureus
# Assay: Bactericidal against methicillin-resistant Staphylococcus aureus ATCC 4330 assessed as inhibition of bacterial growth incubated for 24 hrs by broth dilution method
# Type: functional
# Settings: not given
row,SMILES,MBC [µg/mL]
1,CCCCC(=O)c1c(O)cc(O)c(C(=O)CCCC)c1O,2
2,CCCCCCCC(=O)c1c(O)cc(O)c(C(=O)CCCCCCC)c1O,1
3,O=C(c1c(O)cc(O)c(C(=O)C2CCCCC2)c1O)C1CCCCC1,8
4,CCCCCC(=O)c1c(O)cc(O)c(C(=O)CCCCC)c1O,2
5,CC(C)(C)CC(=O)c1c(O)cc(O)c(C(=O)CC(C)(C)C)c1O,4
6,CC(C)CCC(=O)c1c(O)cc(O)c(C(=O)CCC(C)C)c1O,2
7,CCCCC(=O)c1c(O)cc(O)c(C(=O)CC(C)(C)C)c1O,4
8,O=C(c1c(O)cc(O)c(C(=O)C2CCC2)c1O)C1CCC1,4
9,CC(=O)c1c(O)cc(O)c(C(C)=O)c1O,32
10,O=C(Cc1ccccc1)c1c(O)cc(O)c(C(=O)Cc2ccccc2)c1O,8
